Results on seven compounds are retold here after patent US11492385B2, “Long-acting co-agonists of the glucagon and GLP-1 receptors” (Merck Sharp & Dohme Corp., priority 2015, dated 2022).

Starred links: 1 amine or outer side, 2 acyl side, 3 side chain; linkers in the order of their positions; H or OH if unused. Non-standard residues stand in square brackets, D forms with d. Residues, ends and D or L forms follow the SMILES beside them. Groups on a side chain read outwards from the residue. *: point of attachment. C16 diacid = O=C(O)CCCCCCCCCCCCCCC(=O)*; γGlu = O=C(O)[C@H](CCC(=O)[*:2])N[*:1]; X1 = O=C([C@H]1CCC[C@@H]1N[*:1])[*:2]; Met(O2) = CS(=O)(=O)CC[C@H](N)C(=O)O; αMeF = C[C@](N)(Cc1ccccc1)C(=O)O; αMeD = C[C@](N)(CC(=O)O)C(=O)O; αMeL = CC(C)C[C@](C)(N)C(=O)O; AEEA = NCCOCCOCC(=O)O; Aib = CC(C)(N)C(=O)O

The target in one assay is T1, human GLP1R (Homo sapiens, UniProt P43220).
T1 construct: expressed in transfected cells; kept under Blasticidin and Hygromycin selection
Briefly: cAMP activity assay, cells expressing human GLP1R. The note with it: cAMP production, assay buffer with or without 20% human serum (not stated which). The class given is cell-based. A digest of the protocol:
(§1)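 cAMP production in human GLP1R- or GCGR-expressing cells was read by luminescence after overnight dark incubation at room temperature. Peptides were given as 10-point DMSO dilution series, with native GLP-1 and glucagon as references. Four-parameter logistic fitting gave EC50.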
(Changes in cAMP serve as a functional read-out for many G protein-coupled receptors.)

The target in a further assay is T2, human GCGR (Homo sapiens, UniProt P47871).
T2 construct: expressed in transfected cells; kept under Blasticidin and Hygromycin selection
In words: cAMP activity assay, cells expressing human GCGR. The class given is cell-based. The conditions noted are these: for EC50: cAMP production, cells expressing human GCGR, assay buffer with or without 20% human serum (not stated which), read-out: GCGR EC50 human; for hGCGR/hGLP1R (hTone): ratio of human GCGR EC50 to human GLP1R EC50. The method in brief:
as §1

T1 sequence (P43220 24-463): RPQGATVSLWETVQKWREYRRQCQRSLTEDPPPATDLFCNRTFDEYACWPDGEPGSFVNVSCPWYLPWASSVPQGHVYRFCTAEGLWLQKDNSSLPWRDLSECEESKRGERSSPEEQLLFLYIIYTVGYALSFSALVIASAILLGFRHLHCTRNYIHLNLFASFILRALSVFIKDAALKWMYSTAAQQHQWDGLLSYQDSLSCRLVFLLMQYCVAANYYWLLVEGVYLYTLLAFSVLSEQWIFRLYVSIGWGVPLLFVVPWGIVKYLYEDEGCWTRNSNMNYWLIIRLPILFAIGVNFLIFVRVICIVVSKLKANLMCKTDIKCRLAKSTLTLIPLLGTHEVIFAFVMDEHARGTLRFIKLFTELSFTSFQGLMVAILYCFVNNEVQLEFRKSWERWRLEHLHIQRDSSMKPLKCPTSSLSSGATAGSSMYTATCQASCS
T2 sequence (P47871 26-477): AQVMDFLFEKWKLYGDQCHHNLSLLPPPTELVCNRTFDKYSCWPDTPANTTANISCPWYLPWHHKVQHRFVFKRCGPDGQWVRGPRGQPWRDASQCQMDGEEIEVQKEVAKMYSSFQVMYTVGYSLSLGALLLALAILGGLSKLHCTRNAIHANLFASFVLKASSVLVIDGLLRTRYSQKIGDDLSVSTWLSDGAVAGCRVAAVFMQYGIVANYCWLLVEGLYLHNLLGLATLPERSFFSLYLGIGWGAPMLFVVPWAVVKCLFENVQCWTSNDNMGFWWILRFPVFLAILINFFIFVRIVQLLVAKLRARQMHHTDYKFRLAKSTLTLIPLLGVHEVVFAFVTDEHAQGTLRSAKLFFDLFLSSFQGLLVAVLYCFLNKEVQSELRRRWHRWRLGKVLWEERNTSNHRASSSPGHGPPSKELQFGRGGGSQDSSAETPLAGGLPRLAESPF

`CC(C)C[C@H](NC(=O)[C@H](Cc1ccc(O)cc1)NC(=O)[C@H]1CCC[C@@H]1NC(=O)[C@H](CO)NC(=O)[C@H](Cc1ccc(O)cc1)NC(=O)[C@H](CC(=O)O)NC(=O)[C@H](CO)NC(=O)[C@@H](NC(=O)[C@H](Cc1ccccc1)NC(=O)[C@@H](NC(=O)CNC(=O)[C@H](CCC(N)=O)NC(=O)C(C)(C)NC(=O)[C@@H](N)Cc1c[nH]cn1)[C@@H](C)O)[C@@H](C)O)C(=O)N[C@@H](CC(=O)O)C(=O)NC(C)(C)C(=O)N[C@@H](CCCNC(=N)N)C(=O)N[C@@H](C)C(=O)N[C@@H](C)C(=O)N[C@@H](CCCCNC(=O)COCCOCCNC(=O)COCCOCCNC(=O)CC[C@H](NC(=O)CCCCCCCCCCCCCCC(=O)O)C(=O)O)C(=O)N[C@@H](CC(=O)O)C(=O)N[C@@H](Cc1ccccc1)C(=O)N[C@H](C(=O)N[C@H]1CCC[C@@H]1C(=O)N[C@@H](Cc1c[nH]c2ccccc12)C(=O)N[C@@H](CC(C)C)C(=O)N[C@@H](CCS(C)(=O)=O)C(=O)N[C@@H](CC(=O)O)C(=O)N[C@H](C(N)=O)[C@@H](C)O)C(C)C` [compound 36] (H-H[Aib]QGTFTSDYS[X1]YLD[Aib]RAAK([AEEA-AEEA-γGlu-C16 diacid])DFV[X1]WL[Met(O2)]DT-NH2; N-terminus assumed) yielded an EC50 at human GLP1R of 0.36 nM. Moreover, at human GCGR, the 50% effective concentration (EC50) stood at 0.23 nM and the “hGCGR/hGLP1R (hTone)” value was determined as 0.65.
As for `CC(C)C[C@H](NC(=O)[C@H](Cc1ccc(O)cc1)NC(=O)[C@H](CCCCN)NC(=O)[C@H](CO)NC(=O)[C@H](Cc1ccc(O)cc1)NC(=O)[C@](C)(CC(=O)O)NC(=O)[C@H](CO)NC(=O)[C@@H](NC(=O)[C@H](Cc1ccccc1)NC(=O)[C@@H](NC(=O)CNC(=O)[C@H](CCC(N)=O)NC(=O)C(C)(C)NC(=O)[C@@H](N)Cc1c[nH]cn1)[C@@H](C)O)[C@@H](C)O)C(=O)N[C@@H](CC(=O)O)C(=O)N[C@@H](C)C(=O)N[C@@H](CCCNC(=N)N)C(=O)N[C@@H](C)C(=O)N[C@@H](C)C(=O)N[C@@H](CCCCNC(=O)COCCOCCNC(=O)COCCOCCNC(=O)CC[C@H](NC(=O)CCCCCCCCCCCCCCC(=O)O)C(=O)O)C(=O)N[C@@H](CC(=O)O)C(=O)N[C@@H](Cc1ccccc1)C(=O)N[C@H](C(=O)N[C@@H](CCC(N)=O)C(=O)N[C@@H](Cc1c[nH]c2ccccc12)C(=O)N[C@@H](CC(C)C)C(=O)N[C@@H](CCS(C)(=O)=O)C(=O)N[C@@H](CC(=O)O)C(=O)N[C@H](C(N)=O)[C@@H](C)O)C(C)C` [compound 37] (H-H[Aib]QGTFTS[αMeD]YSKYLDARAAK([AEEA-AEEA-γGlu-C16 diacid])DFVQWL[Met(O2)]DT-NH2), the EC50 at human GLP1R came out at 0.11 nM. Moreover, at human GCGR, the EC50 came out at 0.67 nM and the “hGCGR/hGLP1R (hTone)” value stood at 6.24.
`CC(C)C[C@H](NC(=O)[C@H](Cc1c[nH]c2ccccc12)NC(=O)[C@H](CCC(N)=O)NC(=O)[C@@H](NC(=O)[C@H](Cc1ccccc1)NC(=O)[C@H](CC(=O)O)NC(=O)[C@H](CCCCNC(=O)COCCOCCNC(=O)COCCOCCNC(=O)CC[C@H](NC(=O)CCCCCCCCCCCCCCC(=O)O)C(=O)O)NC(=O)[C@H](C)NC(=O)[C@H](C)NC(=O)[C@H](CCCNC(=N)N)NC(=O)[C@H](C)NC(=O)[C@H](CC(=O)O)NC(=O)[C@](C)(CC(C)C)NC(=O)[C@H](Cc1ccc(O)cc1)NC(=O)[C@H](CCCCN)NC(=O)[C@H](CO)NC(=O)[C@H](Cc1ccc(O)cc1)NC(=O)[C@H](CC(=O)O)NC(=O)[C@H](CO)NC(=O)[C@@H](NC(=O)[C@H](Cc1ccccc1)NC(=O)[C@@H](NC(=O)CNC(=O)[C@H](CCC(N)=O)NC(=O)C(C)(C)NC(=O)[C@@H](N)Cc1c[nH]cn1)[C@@H](C)O)[C@@H](C)O)C(C)C)C(=O)N[C@@H](CCS(C)(=O)=O)C(=O)N[C@@H](CC(=O)O)C(=O)N[C@H](C(N)=O)[C@@H](C)O` [compound 38] (H-H[Aib]QGTFTSDYSKY[αMeL]DARAAK([AEEA-AEEA-γGlu-C16 diacid])DFVQWL[Met(O2)]DT-NH2) yielded an EC50 on human GLP1R of 0.1 nM. Also, on human GCGR, the EC50 amounted to 0.46 nM and the “hGCGR/hGLP1R (hTone)” value worked out at 4.54.
In the same order, the values of `CC(C)C[C@H](NC(=O)[C@H](Cc1ccc(O)cc1)NC(=O)[C@H](CCCCN)NC(=O)[C@H](CO)NC(=O)[C@H](Cc1ccc(O)cc1)NC(=O)[C@H](CC(=O)O)NC(=O)[C@H](CO)NC(=O)[C@@H](NC(=O)[C@H](Cc1ccccc1)NC(=O)[C@@H](NC(=O)CNC(=O)[C@H](CCC(N)=O)NC(=O)C(C)(C)NC(=O)[C@@H](N)Cc1c[nH]cn1)[C@@H](C)O)[C@@H](C)O)C(=O)N[C@@H](CC(=O)O)C(=O)N[C@@H](C)C(=O)N[C@@H](CCCNC(=N)N)C(=O)N[C@@H](C)C(=O)N[C@@H](C)C(=O)N[C@@H](CCCCNC(=O)COCCOCCNC(=O)COCCOCCNC(=O)CC[C@H](NC(=O)CCCCCCCCCCCCCCC(=O)O)C(=O)O)C(=O)N[C@@H](CC(=O)O)C(=O)N[C@@](C)(Cc1ccccc1)C(=O)N[C@H](C(=O)N[C@@H](CCC(N)=O)C(=O)N[C@@H](Cc1c[nH]c2ccccc12)C(=O)N[C@@H](CC(C)C)C(=O)N[C@@H](CCS(C)(=O)=O)C(=O)N[C@@H](CC(=O)O)C(=O)N[C@H](C(N)=O)[C@@H](C)O)C(C)C` [compound 39] (H-H[Aib]QGTFTSDYSKYLDARAAK([AEEA-AEEA-γGlu-C16 diacid])D[αMeF]VQWL[Met(O2)]DT-NH2) are 0.11 nM, 0.33 nM and 2.93.
In the same order, the values of `CC(C)C[C@H](NC(=O)[C@H](Cc1ccc(O)cc1)NC(=O)[C@H](CCCCN)NC(=O)[C@H](CO)NC(=O)[C@H](Cc1ccc(O)cc1)NC(=O)[C@H](CC(=O)O)NC(=O)[C@H](CO)NC(=O)[C@@H](NC(=O)[C@H](Cc1ccccc1)NC(=O)[C@@H](NC(=O)CNC(=O)[C@H](CCC(N)=O)NC(=O)C(C)(C)NC(=O)[C@@H](N)Cc1c[nH]cn1)[C@@H](C)O)[C@@H](C)O)C(=O)N[C@@H](CC(=O)O)C(=O)N[C@@H](C)C(=O)N[C@@H](CCCNC(=N)N)C(=O)N[C@@H](C)C(=O)N[C@@H](C)C(=O)N[C@@H](CCCCNC(=O)COCCOCCNC(=O)COCCOCCNC(=O)CC[C@H](NC(=O)CCCCCCCCCCCCCCC(=O)O)C(=O)O)C(=O)N[C@@H](CC(=O)O)C(=O)N[C@@H](Cc1ccccc1)C(=O)N[C@H](C(=O)N[C@@H](CCC(N)=O)C(=O)N[C@@H](Cc1c[nH]c2ccccc12)C(=O)N[C@@](C)(CC(C)C)C(=O)N[C@@H](CCS(C)(=O)=O)C(=O)N[C@@H](CC(=O)O)C(=O)N[C@H](C(N)=O)[C@@H](C)O)C(C)C` [compound 40] (H-H[Aib]QGTFTSDYSKYLDARAAK([AEEA-AEEA-γGlu-C16 diacid])DFVQW[αMeL][Met(O2)]DT-NH2) are 0.06 nM, 0.65 nM and 10.39.
`CC(C)C[C@H](NC(=O)[C@H](Cc1ccc(O)cc1)NC(=O)[C@H](CCCCN)NC(=O)[C@H](CO)NC(=O)[C@H](Cc1ccc(O)cc1)NC(=O)[C@H](CC(=O)O)NC(=O)[C@H](CO)NC(=O)[C@@H](NC(=O)[C@H](Cc1ccccc1)NC(=O)[C@@H](NC(=O)CNC(=O)[C@H](CCC(N)=O)NC(=O)C(C)(C)NC(=O)[C@@H](N)Cc1c[nH]cn1)[C@@H](C)O)[C@@H](C)O)C(=O)N[C@@H](CC(=O)O)C(=O)N[C@@H](C)C(=O)N[C@@H](CCCNC(=N)N)C(=O)N[C@@H](C)C(=O)N[C@@H](C)C(=O)N[C@@H](CCCCNC(=O)COCCOCCNC(=O)COCCOCCNC(=O)CC[C@H](NC(=O)CCCCCCCCCCCCCCC(=O)O)C(=O)O)C(=O)N[C@@H](CC(=O)O)C(=O)N[C@@H](Cc1ccccc1)C(=O)N[C@H](C(=O)N[C@@H](CCC(N)=O)C(=O)N[C@@H](Cc1c[nH]c2ccccc12)C(=O)N[C@@H](CC(C)C)C(=O)N[C@@H](CCS(C)(=O)=O)C(=O)N[C@@](C)(CC(=O)O)C(=O)N[C@H](C(N)=O)[C@@H](C)O)C(C)C` [compound 41] (H-H[Aib]QGTFTSDYSKYLDARAAK([AEEA-AEEA-γGlu-C16 diacid])DFVQWL[Met(O2)][αMeD]T-NH2): the EC50 on human GLP1R was 0.02 nM; on human GCGR it was 0.05 nM. Also, on human GCGR, the “hGCGR/hGLP1R (hTone)” value was found to be 3.13.
For the compound `CC(C)C[C@H](NC(=O)[C@H](Cc1ccc(O)cc1)NC(=O)[C@H](CCCCN)NC(=O)[C@H](CO)NC(=O)[C@H](Cc1ccc(O)cc1)NC(=O)[C@H](CC(=O)O)NC(=O)[C@H](CO)NC(=O)[C@@H](NC(=O)[C@H](Cc1ccccc1)NC(=O)[C@@H](NC(=O)CNC(=O)[C@H](CCC(N)=O)NC(=O)C(C)(C)NC(=O)[C@@H](N)Cc1c[nH]cn1)[C@@H](C)O)[C@@H](C)O)C(=O)N[C@@H](CC(=O)O)C(=O)N[C@@H](C)C(=O)N[C@@H](CCCNC(=N)N)C(=O)N[C@@H](C)C(=O)N[C@@H](C)C(=O)N[C@@H](CCCCNC(=O)COCCOCCNC(=O)COCCOCCNC(=O)CC[C@H](NC(=O)CCCCCCCCCCCCCCC(=O)O)C(=O)O)C(=O)N[C@@](C)(CC(=O)O)C(=O)N[C@@H](Cc1ccccc1)C(=O)N[C@H](C(=O)N[C@@H](CCC(N)=O)C(=O)N[C@@H](Cc1c[nH]c2ccccc12)C(=O)N[C@@H](CC(C)C)C(=O)N[C@@H](CCS(C)(=O)=O)C(=O)N[C@@H](CC(=O)O)C(=O)N[C@H](C(N)=O)[C@@H](C)O)C(C)C` [compound 42] (H-H[Aib]QGTFTSDYSKYLDARAAK([AEEA-AEEA-γGlu-C16 diacid])[αMeD]FVQWL[Met(O2)]DT-NH2), on human GLP1R, a half-maximal response (EC50) required 0.04 nM. On human GCGR, the EC50 was 0.13 nM and the “hGCGR/hGLP1R (hTone)” value is 3.21.

Broadly, the EC50 is the concentration giving half of the maximal effect.
